# Results: patent US20020128317A1, “Treatment of pathological conditions characterized by an increased IL-1 level” (Laboratories NEGMA, priority 2001, published 2002)
# What was measured:
# IL-1 [1] = experiment: IL-1 inhibition, several studies in vitro and with animal models of osteoarthritis
# Text: (§1) This unique mechanism of action of diacerein was thought to explain, at least in part, its efficacy in the symptomatic treatment of osteoarthritis.
# [2] = tested on: prostaglandin biosynthesis; experiment: Inhibition of prostaglandin biosynthesis; assay type: biochemical
# Text: as §1
# phospholipase pathway = experiment: Inhibitory effect on phospholipase pathway; assay type: biochemical
# Text: as §1
# cyclooxygenase pathway = experiment: Inhibitory effect on cyclooxygenase pathway; assay type: biochemical
# Text: as §1
# lipooxygenase pathway = experiment: Inhibitory effect on lipooxygenase pathway; assay type: biochemical
# Text: as §1
# cartilage degradation = experiment: Effect on cartilage degradation in osteoarthritis treatment; assay type: in vivo; settings: prescribed treatment protocol
# IL-1 [3] = experiment: Effect of administration on IL-1 levels in subjects; assay type: in vivo; settings: subjects with abnormally elevated IL-1 and TNF-α levels
# TNF-α = experiment: Effect of administration on TNF-α levels in subjects; assay type: in vivo; settings: subjects with abnormally elevated IL-1 and TNF-α levels
# Solubility = assay type: physicochemical
# Experimental: (§2) Preferably the diacerein or rhein is administered orally in the conventional solid unit dosage form.
# [4] = Stability in aqueous solution; assay type: physicochemical
# Experimental: as §2
# [5] = Gastric safety during osteoarthritis treatment; assay type: in vivo
# Text: as §1
substance,measurement,setting,value
diacerein,IL-1 inhibition,IL-1 [1],is an IL-1 inhibitor
same,inhibition of prostaglandin biosynthesis,[2],neither diacerein nor rhein inhibit
same,inhibitory effect on the phospholipase pathway,phospholipase pathway,no inhibitory effect was detected
same,inhibitory effect on the cyclooxygenase pathway,cyclooxygenase pathway,no inhibitory effect was detected
same,inhibitory effect on the lipooxygenase pathway,lipooxygenase pathway,no inhibitory effect was detected
same,effect on cartilage degradation,cartilage degradation,significant effect on cartilage degradation
same,effect on IL-1 levels,IL-1 [3],inhibitory effect
same,effect on TNF-α levels,TNF-α,inhibitory effect
same,solubility in alcohol,Solubility; alcohol,virtually insoluble
same,solubility in water,Solubility; water,virtually insoluble
same,stability in water,[4],may not be sufficiently stable
same,gastric safety profile,[5],excellent gastric safety profile
